Experimental data: ChEMBL document CHEMBL1921688, “Alkaloids from Chelidonium majus and their inhibitory effects on LPS-induced NO production in RAW264.7 cells” (Bioorg Med Chem Lett, 2011)
The source made the active and inactive calls. No cut-off for these calls is given here.

Tests used:
[1] = test system: RAW264.7; test: Antiinflammatory activity in mouse RAW264.7 cells assessed as inhibition of LPS-induced nitric oxide production after 24 hrs by griess assay; format: functional, cell-based; settings: RAW264.7, 24 h
[2] = test system: RAW264.7; test: Cytotoxicity against mouse RAW264.7 cells assessed as cell viability at 50 uM after 24 hrs by MTT assay; format: cell-based; settings: raw264.7, 24 h
[3] = test system: RAW264.7; test: Antiinflammatory activity in mouse RAW264.7 cells assessed as inhibition of LPS-induced iNOS production after 18 hrs by Western blot analysis; format: functional, cell-based
[4] = test system: RAW264.7; test: Antiinflammatory activity in mouse RAW264.7 cells assessed as inhibition of LPS-induced iNOS production at 1 uM after 18 hrs by Western blot analysis; format: functional, cell-based
[5] = test system: RAW264.7; test: Antiinflammatory activity in mouse RAW264.7 cells assessed as inhibition of LPS-induced COX2 production after 18 hrs by Western blot analysis; format: functional, cell-based
[6] = test system: RAW264.7; test: Antiinflammatory activity in mouse RAW264.7 cells assessed as inhibition of LPS-induced COX2 production at 3 uM after 18 hrs by Western blot analysis; format: functional, cell-based
[7] = test system: RAW264.7; test: Antiinflammatory activity in mouse RAW264.7 cells assessed as inhibition of LPS-induced iNOS promoter activity; format: functional, cell-based
[8] = test system: RAW264.7; test: Antiinflammatory activity in mouse RAW264.7 cells assessed as inhibition of LPS-induced COX2 promoter activity; format: functional, cell-based
[9] = test system: RAW264.7; test: Antiinflammatory activity in mouse RAW264.7 cells assessed as inhibition of LPS-induced iNOS production at 3 uM after 18 hrs by Western blot analysis; format: functional, cell-based

IC50 [1]	SMILES	Activity [2]	inhibition [3]	inhibition [4]	inhibition [5]	inhibition [6]	inhibition [7]	inhibition [8]	inhibition [9]
> 50 µM	COC(=O)CC1c2c(ccc3c2OCO3)-c2ccc3cc4c(cc3c2N1C)OCO4 (stereo not given)	Non-toxic							
> 30 µM	COc1ccc2cc3[n+](cc2c1OC)CCc1cc2c(cc1-3)OCO2 [BERBERINE]	Non-toxic							
16.5 µM	O[C@@H]1Cc2cc3c(cc2[C@@H]2NCc4c(ccc5c4OCO5)[C@H]12)OCO3 [NORCHELIDONINE]	Non-toxic							
	CN1CCc2cc3c(cc2C(=O)Cc2ccc4c(c2C1)OCO4)OCO3 [PROTOPINE]	Non-toxic							
> 50 µM	c1cc2c(c3c1C[C@H]1c4cc5c(cc4CCN1C3)OCO5)OCO2 [STYLOPINE]	Non-toxic							

SMILES	IC50 [1]	Activity [2]	inhibition [3]	inhibition [4]	inhibition [5]	inhibition [6]	inhibition [7]	inhibition [8]	inhibition [9]
CN1c2c(ccc3cc4c(cc23)OCO4)-c2ccc3c(c2C1O)OCO3 (stereo not given)	4.5 µM	Non-toxic	Dose-dependent effect	Active	Dose-dependent effect	Active	Active	Active	
CN1Cc2c(ccc3c2OCO3)[C@@H]2[C@H]1c1cc3c(cc1C[C@@H]2O)OCO3 [CHELIDONINE]	7.3 µM	Non-toxic	Dose-dependent effect		Dose-dependent effect	Active	Active	Active	Active
